Laboratory results reported in publication PMC3243724, “Recognition and Degradation of Plant Cell Wall Polysaccharides by Two Human Gut Symbionts” (PLoS Biology, 2011).

Legend:
Test in all cases: isothermal titration calorimetry
Format in all cases: binding
[1] = molecular target: T1, BT0366 (arabinan HTCS sensor), periplasmic domain (Bacteroides thetaiotaomicron, UniProt Q8AAU8); conditions: 25 °C, HEPES pH 8.0; two-site fit, site 1 (stronger)
T1 construct: gene BT_0366
T1 sequence (Q8AAU8 24-810 limits assumed): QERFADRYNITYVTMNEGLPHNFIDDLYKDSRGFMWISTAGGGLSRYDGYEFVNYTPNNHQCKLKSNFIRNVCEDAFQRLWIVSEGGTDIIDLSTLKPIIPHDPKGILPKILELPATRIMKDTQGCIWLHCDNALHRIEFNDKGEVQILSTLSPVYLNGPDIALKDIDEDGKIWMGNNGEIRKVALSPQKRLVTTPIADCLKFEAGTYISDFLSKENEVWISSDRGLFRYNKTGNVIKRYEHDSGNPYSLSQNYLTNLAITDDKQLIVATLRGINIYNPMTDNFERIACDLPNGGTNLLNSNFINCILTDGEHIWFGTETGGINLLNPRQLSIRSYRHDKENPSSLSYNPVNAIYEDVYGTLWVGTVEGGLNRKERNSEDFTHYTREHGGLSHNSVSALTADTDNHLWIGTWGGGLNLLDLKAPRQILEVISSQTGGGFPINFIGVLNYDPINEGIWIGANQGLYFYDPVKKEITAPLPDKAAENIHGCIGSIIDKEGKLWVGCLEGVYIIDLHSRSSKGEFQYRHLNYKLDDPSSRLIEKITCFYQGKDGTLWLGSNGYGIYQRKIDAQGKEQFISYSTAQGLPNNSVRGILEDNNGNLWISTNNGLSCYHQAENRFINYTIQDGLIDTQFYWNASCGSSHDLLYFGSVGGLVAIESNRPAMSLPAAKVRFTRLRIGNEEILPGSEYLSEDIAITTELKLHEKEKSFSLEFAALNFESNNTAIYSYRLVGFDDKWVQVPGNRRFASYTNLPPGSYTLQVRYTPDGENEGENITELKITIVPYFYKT
Source text: isothermal titration calorimetry on BT0366 (arabinan HTCS sensor), periplasmic domain

[2] = molecular target: BACOVA_02740 (β-glucan HTCS sensor), periplasmic domain (Bacteroides ovatus, UniProt A0ABU3IRK2); conditions: 25 °C, HEPES pH 8.0; for Ka / (M^-1): single-site fit
Source text: isothermal titration calorimetry on BACOVA_02740 (β-glucan HTCS sensor), periplasmic domain

[3] = molecular target: BACOVA_04394 (xylan HTCS sensor), periplasmic domain (Bacteroides ovatus, UniProt A0ABU3IPP8); conditions: 25 °C, HEPES pH 8.0; for Ka: binding seen, too low to fit (TLTF); for Ka / (M^-1): single-site fit
Source text: isothermal titration calorimetry on BACOVA_04394 (xylan HTCS sensor), periplasmic domain

Chain of BACOVA_04394 (xylan HTCS sensor), periplasmic domain (A0ABU3IPP8 21-805 limits assumed): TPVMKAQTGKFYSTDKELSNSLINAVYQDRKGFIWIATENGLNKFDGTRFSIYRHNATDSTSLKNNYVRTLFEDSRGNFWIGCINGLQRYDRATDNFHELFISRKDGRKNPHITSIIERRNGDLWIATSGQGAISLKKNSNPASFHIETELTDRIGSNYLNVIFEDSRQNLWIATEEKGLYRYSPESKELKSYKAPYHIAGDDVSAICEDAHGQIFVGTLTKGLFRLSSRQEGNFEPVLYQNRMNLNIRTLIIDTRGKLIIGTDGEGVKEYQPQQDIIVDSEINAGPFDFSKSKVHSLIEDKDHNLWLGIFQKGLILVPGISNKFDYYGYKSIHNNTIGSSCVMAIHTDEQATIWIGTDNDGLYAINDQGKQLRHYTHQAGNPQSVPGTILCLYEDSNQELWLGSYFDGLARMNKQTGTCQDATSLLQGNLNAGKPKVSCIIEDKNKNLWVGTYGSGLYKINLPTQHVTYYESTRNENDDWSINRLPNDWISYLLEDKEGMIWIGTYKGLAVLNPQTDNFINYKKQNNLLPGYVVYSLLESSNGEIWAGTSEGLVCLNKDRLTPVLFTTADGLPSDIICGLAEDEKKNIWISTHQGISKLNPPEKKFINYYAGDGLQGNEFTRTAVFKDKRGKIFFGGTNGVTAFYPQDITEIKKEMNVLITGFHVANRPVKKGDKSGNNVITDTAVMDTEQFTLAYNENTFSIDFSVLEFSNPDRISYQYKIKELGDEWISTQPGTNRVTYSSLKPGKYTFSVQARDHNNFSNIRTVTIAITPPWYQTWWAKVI
Chain of BACOVA_02740 (β-glucan HTCS sensor), periplasmic domain (A0ABU3IRK2 21-759 limits assumed): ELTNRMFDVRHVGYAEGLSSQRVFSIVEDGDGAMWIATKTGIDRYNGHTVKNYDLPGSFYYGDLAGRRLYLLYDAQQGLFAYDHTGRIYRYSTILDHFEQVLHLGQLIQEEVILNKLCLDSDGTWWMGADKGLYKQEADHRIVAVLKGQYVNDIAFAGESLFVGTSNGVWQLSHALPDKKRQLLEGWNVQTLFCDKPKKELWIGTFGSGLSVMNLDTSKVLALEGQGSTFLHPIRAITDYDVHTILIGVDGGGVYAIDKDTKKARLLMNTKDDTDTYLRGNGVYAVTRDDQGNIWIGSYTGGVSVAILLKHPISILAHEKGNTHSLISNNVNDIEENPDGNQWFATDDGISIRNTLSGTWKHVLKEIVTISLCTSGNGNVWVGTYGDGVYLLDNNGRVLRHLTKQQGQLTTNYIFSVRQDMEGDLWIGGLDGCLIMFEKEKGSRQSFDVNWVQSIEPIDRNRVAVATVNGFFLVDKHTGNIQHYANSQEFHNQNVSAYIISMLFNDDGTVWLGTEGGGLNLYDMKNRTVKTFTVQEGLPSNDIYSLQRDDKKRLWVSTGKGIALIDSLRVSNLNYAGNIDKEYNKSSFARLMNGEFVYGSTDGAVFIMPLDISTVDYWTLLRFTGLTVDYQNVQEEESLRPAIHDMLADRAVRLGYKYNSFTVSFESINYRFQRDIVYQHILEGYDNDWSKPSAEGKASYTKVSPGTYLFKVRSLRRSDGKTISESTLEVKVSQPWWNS

## OC[C@@H]1O[C@@H](OC[C@@H]2O[C@@H](OC[C@@H]3O[C@@H](OC[C@@H]4O[C@@H](OC[C@@H]5O[C@@H](OC[C@@H]6O[C@@H](OC[C@@H]7OC(O)[C@H](O)[C@H]7O)[C@H](O)[C@H]6O)[C@H](O)[C@H]5O)[C@H](O)[C@H]4O)[C@H](O)[C@H]3O)[C@H](O)[C@H]2O)[C@H](O)[C@H]1O (stereo partly drawn) [Arabinoheptaose]
[1]
  Ka / (M^-1): 3.5E4±0.6

## OC[C@@H]1O[C@@H](OC[C@@H]2O[C@@H](OC[C@@H]3O[C@@H](OC[C@@H]4O[C@@H](OC[C@@H]5O[C@@H](OC[C@@H]6OC(O)[C@H](O)[C@H]6O)[C@H](O)[C@H]5O)[C@H](O)[C@H]4O)[C@H](O)[C@H]3O)[C@H](O)[C@H]2O)[C@H](O)[C@H]1O (stereo partly drawn) [Arabinohexaose]
[1]
  Ka / (M^-1): 3.9E3±0.9

## OC[C@@H]1O[C@@H](OC[C@@H]2O[C@@H](OC[C@@H]3O[C@@H](OC[C@@H]4O[C@@H](OC[C@@H]5O[C@@H](OC[C@@H]6O[C@@H](OC[C@@H]7O[C@@H](OC[C@@H]8OC(O)[C@H](O)[C@H]8O)[C@H](O)[C@H]7O)[C@H](O)[C@H]6O)[C@H](O)[C@H]5O)[C@H](O)[C@H]4O)[C@H](O)[C@H]3O)[C@H](O)[C@H]2O)[C@H](O)[C@H]1O (stereo partly drawn) [Arabinooctaose]
[1]
  Ka / (M^-1): 4.8E4±0.1

## OC[C@H]1O[C@@H](O[C@@H]2[C@@H](O)[C@H](O[C@H]3[C@H](O)[C@@H](O)[C@H](O[C@H]4[C@H](O)[C@@H](O)[C@H](O[C@H]5[C@H](O)[C@@H](O)C(O)O[C@@H]5CO)O[C@@H]4CO)O[C@@H]3CO)O[C@H](CO)[C@H]2O)[C@H](O)[C@@H](O)[C@@H]1O (stereo partly drawn) [Glucopentaose A (β3,4,4,4)]
[2]; binding seen, too low to fit (TLTF)
  Ka: ∼5.0×10^2

## OC[C@H]1O[C@@H](O[C@H]2[C@H](O)[C@@H](O)[C@H](O[C@H]3[C@H](O)[C@@H](O)[C@H](O[C@H]4[C@H](O)[C@@H](CO)OC(O)[C@@H]4O)O[C@@H]3CO)O[C@@H]2CO)[C@H](O)[C@@H](O)[C@@H]1O (stereo partly drawn) [Glucotetraose B (β4,4,3)]
[2]
  Ka / (M^-1): 2.5E3±1.3

## OC[C@H]1O[C@@H](O[C@H]2[C@H](O)[C@@H](O)[C@H](O[C@@H]3[C@@H](O)[C@H](O[C@H]4[C@H](O)[C@@H](O)C(O)O[C@@H]4CO)O[C@H](CO)[C@H]3O)O[C@@H]2CO)[C@H](O)[C@@H](O)[C@@H]1O (stereo partly drawn) [Glucotetraose C (β4,3,4)]
[2]
  Ka / (M^-1): 3.2E4±0.7

## OC[C@H]1O[C@@H](O[C@H]2[C@H](O)[C@@H](O)[C@H](O[C@H]3[C@H](O)[C@@H](CO)OC(O)[C@@H]3O)O[C@@H]2CO)[C@H](O)[C@@H](O)[C@@H]1O (stereo partly drawn) [Glucotriose B (β4,3)]
[2]
  Ka / (M^-1): 3.4E3±1.9

## OC1OC[C@@H](O[C@@H]2OC[C@@H](O)[C@H](O)[C@H]2O)[C@H](O)[C@H]1O (stereo partly drawn) [Xylobiose]
[3]
  Ka: ∼5.0×10^2

## OC1OC[C@@H](O[C@@H]2OC[C@@H](O[C@@H]3OC[C@@H](O[C@@H]4OC[C@@H](O[C@@H]5OC[C@@H](O[C@@H]6OC[C@@H](O)[C@H](O)[C@H]6O)[C@H](O)[C@H]5O)[C@H](O)[C@H]4O)[C@H](O)[C@H]3O)[C@H](O)[C@H]2O)[C@H](O)[C@H]1O (stereo partly drawn) [Xylohexaose]
[3]
  Ka: ∼5.0×10^2

## OC1OC[C@@H](O[C@@H]2OC[C@@H](O[C@@H]3OC[C@@H](O[C@@H]4OC[C@@H](O[C@@H]5OC[C@@H](O)[C@H](O)[C@H]5O)[C@H](O)[C@H]4O)[C@H](O)[C@H]3O)[C@H](O)[C@H]2O)[C@H](O)[C@H]1O (stereo partly drawn) [Xylopentaose]
[3]
  Ka / (M^-1): 8.8E4±2.9

## OC1OC[C@@H](O[C@@H]2OC[C@@H](O[C@@H]3OC[C@@H](O[C@@H]4OC[C@@H](O)[C@H](O)[C@H]4O)[C@H](O)[C@H]3O)[C@H](O)[C@H]2O)[C@H](O)[C@H]1O (stereo partly drawn) [Xylotetraose]
[3]
  Ka / (M^-1): 6.8E5±1.2

## OC1OC[C@@H](O[C@@H]2OC[C@@H](O[C@@H]3OC[C@@H](O)[C@H](O)[C@H]3O)[C@H](O)[C@H]2O)[C@H](O)[C@H]1O (stereo partly drawn) [Xylotriose]
[3]
  Ka / (M^-1): 1.1E3±0.1
